Results from paper PMC7321149 (Molecules, 2020).
Read-outs that look alike come from different tables or passages of the source.

Assays:
[1] = test system: visceral leishmaniasis; set-up: method as in earlier work; conditions: phase II clinical trial; cited from earlier work
[2] = test system: L. amazonensis; assay: Leishmania high content assay, intracellular amastigotes in PMA-differentiated THP-1 macrophages; type: cell-based, Leishmania amazonensis (MHOM/BR/1977/LTB0016); conditions: for EC50: Leishmania amazonensis
Description: (§1) THP-1 cells were plated onto 384-well assay plates (7000 cells/well, 25 μL) in RPMI complete media containing 50 ng/mL phorbol 12-myristate 13-acetate (PMA) and incubated at 37 °C/5% CO2 for 48 h. Cells were then infected with stationary-phase promastigotes at a multiplicity of infection (MOI) of 50 by adding 25 μL RPMI (without PMA reagent), containing 1.4 × 10^7 parasites/mL. After 24 h of incubation at 37 °C (34 °C for cutaneous species), negative control-vehicle (0.5% DMSO), the positive control (10 μM amphotericin B), and compounds were added to the plate at a volume of 10 μL/well, bringing the total volume to 60 μL/well. For the primary screenings, compounds from the LOPAC library were tested at a concentration of 50 µM. […] Assay plates were incubated at 37 °C or 34 °C/5% CO2. After 96 h of compound exposure, assay plates were fixed with paraformaldehyde (PFA) by adding 30 μL of 12% PFA in PBS, pH 7.4, followed by incubation for 15 min at room temperature. Plates were then washed three times with 50 μL of PBS, pH 7.4, and stained with 10 μL/well of 5 μM Draq5 in PBS, pH 7.4, for at least two hours before imaging.
(§2) Plates were imaged in Operetta High Content Imaging System (Perkin Elmer), version 3.1, at a 20× magnification and filters optimized for far-red fluorescence (fluorescence filter: […]). A total of four images were acquired per well, which corresponded to 600–800 cells analyzed per condition. Quantitative readouts of the infection (total THP-1 cell number, total number of infected THP-1 cells, and number of parasites (spots) per infected cell) were determined by custom analysis building blocks in Columbus image analysis software (Perkin Elmer). Briefly, host nuclei and cells were segmented based on DNA staining, followed by the detection of individual parasites also based on DNA staining. Infected cells were determined as cells with one or more spots in the cytoplasmatic area. Details of the analysis workflow are described in the (Supplementary Information (Figure S4 and Table S1).
(§3) HCS data were analyzed as previously described^29. Briefly, the ratio of infected cells to the total number of cells was determined as the infection ratio (IR). The raw data for IR values was normalized to the negative (DMSO-treated infected cells) and positive (non-infected cells) controls to determine the normalized antiparasitic activity, expressed as a percentage in comparison to control wells. The cellular ratio was determined as the proportion between the host cell number in compound-treated wells and the mean cell number in infected control wells. Plates were submitted to quality control analysis using the Z’-factor^53 and only plates with Z’-factor > 0.5 were considered for further analysis. Groups of different samples were analyzed using the ANOVA test followed by Tukey’s multiple comparison test. Studies of correlation were performed using Pearson or Spearman tests. […] Dose–response data were processed with the Graphpad Prism software, version 6, using the sigmoidal dose–response (variable slope) nonlinear curve fitting function.

[3] = test system: L. braziliensis; assay: as above; type: cell-based, Leishmania braziliensis (MHOM/BR/1975/M2903); conditions: for EC50: Leishmania braziliensis
Description: as §1, §2, §3

[4] = test system: L. donovani; assay: as above; type: cell-based, Leishmania donovani (MHOM/IN/1980/DD8)
Description: as §1, §2, §3

[5] = test system: L. amazonensis, L. braziliensis, and L. donovani; assay: Leishmania multi-species high content assay, result stated across the species panel; type: cell-based; conditions: for pan-leishmanial activity (efficacy): against all three species; for normalized activity against two species: two of the three species; for Emax: read-out: maximum efficacy
Description: as §1, §2, §3

[6] = test system: Leishmania; set-up: method as in PMID 27215734; conditions: cited from earlier work
[7] = test system: amastigote forms of L. aethiopica; set-up: method as in PMID 11801222; conditions: cited from earlier work
[8] = test system: L. donovani; set-up: method as in PMID 21739037; conditions: in vitro; cited from earlier work
[9] = confirmatory dose-response, mean of two independent experiments, pEC50 = -log EC50 (M)
[10] = THP-1, confirmatory dose-response, mean of two independent experiments, pEC50 = -log EC50 (M), read-out: pEC50 M L. d (converted)
[11] = THP-1, read-out: pEC50 M L. d (converted)
[12] = THP-1, confirmatory dose-response, mean of two independent experiments, pEC50 = -log EC50 (M), read-out: pEC50 M L. a (converted)
[13] = THP-1, confirmatory dose-response, mean of two independent experiments, pEC50 = -log EC50 (M), read-out: pEC50 M L. b (converted)
[14] = THP-1, library screening plates, mean ± standard deviation from eight assay plates, read-out: EC50 Amphotericin B
[15] = reference compound concentration-effect curves (Figure 2B), 96 h exposure, infected THP-1, read-out: EC50
[16] = dose-response of reference drugs, span over the three species

Molecule: CSc1ccc(OCc2ncc([N+](=O)[O-])n2C)cc1 [fexinidazole]
- efficacy in patients [1]: failed to demonstrate efficacy

Molecule: Bromocryptine
- pEC50 M L. a [2, 9]: 4.43
- pEC50 M L. b [3, 9]: 4.41

Molecule: CN1C[C@H](CNC(=O)OCc2ccccc2)C[C@@H]2c3cccc4c3c(cn4C)C[C@H]21 [Metergoline]
- EC50 [4, 10]: 3.24e-05 M

Molecule: NC(=O)c1cc(N2CC2)c([N+](=O)[O-])cc1[N+](=O)[O-] [CB 1954]
- EC50 ([2]; THP-1): 3.1e-05 M
- EC50 ([2]; THP-1, read-out: pEC50 M L. a (converted)): 3.09e-05 M
- EC50 ([3]; THP-1): 1.6e-06 M
- EC50 ([3]; THP-1, read-out: pEC50 M L. b (converted)): 2.19e-06 M
- EC50 ([4]; THP-1): 3.7e-06 M
- EC50 [4, 11]: 3.72e-06 M
- pan-leishmanial activity (efficacy) [5]: greater than 70%

Molecule: COc1ccccc1OCCNCC(O)COc1cccc2[nH]c3ccccc3c12 (centres unmarked) [Carvedilol]
- EC50 [2, 12]: 3.55e-05 M
- EC50 ([3]; THP-1, confirmatory dose-response screen, values in text, read-out: EC50): 1.62e-05 M
- EC50 [3, 13]: 1.62e-05 M

Molecule: CCCCCCCCCCCCCCCCCCOP(=O)([O-])OC1CC[N+](C)(C)CC1 [Perifosine]
- EC50 [4, 10]: 2.75e-05 M

Molecule: CCC(=O)c1ccc2c(c1)N(CCCN(C)C)c1ccccc1S2 [Propionylpromazine]
- EC50 [2, 12]: 3.47e-05 M
- EC50 [3, 13]: 3.09e-05 M

Molecule: Cl.O=S(=O)(c1cccc2c(Cl)cccc12)N1CCCNCC1 [ML-9]
- pan-leishmanial activity (efficacy) [5]: greater than 70%

Molecule: CN(C)CC/C=C1/c2ccccc2Sc2cc(Cl)ccc21.Cl [EU-0100170]
- normalized activity against two species [5]: > 90%

Molecule: C[C@@H]1[C@H](O)[C@@H](C)/C=C/C=C/C=C/C=C/C=C/C=C/C=C/[C@H](O[C@@H]2O[C@H](C)[C@@H](O)[C@H](N)[C@@H]2O)C[C@@H]2O[C@](O)(C[C@@H](O)C[C@@H](O)[C@H](O)CC[C@@H](O)C[C@@H](O)CC(=O)O[C@H]1C)C[C@H](O)[C@H]2C(=O)O [amphotericin B]
- EC50 [2, 14]: 2.1e-06 ± 1.6e-07 M
- EC50 [2, 15]: 1.7e-06 M
- EC50 [3, 14]: 9.3e-07 ± 4.5e-07 M
- EC50 [3, 15]: 1.3e-06 M
- EC50 [4, 14]: 8.2e-07 ± 7e-08 M
- EC50 [4, 15]: 7e-07 M
- EC50 [5, 16]: 0.7 to 2 µM
- Emax [5, 16]: ~100%

Molecule: CN(C)CCCN1c2ccccc2CCc2ccc(Cl)cc21 [Clomipramine]
- pan-leishmanial activity (efficacy) [5]: greater than 70%

Molecule: CN1CCN(C2Cc3ccccc3Sc3ccc(Cl)cc32)CC1 (centres unmarked) [Clorotepine]
- EC50 [2, 12]: 4.57e-05 M
- EC50 [3, 13]: 2.88e-05 M
- EC50 [4, 10]: 4.37e-05 M

Molecule: N=C(CC(=O)O)C(=O)O [Iminoaspartate]
- pEC50 M L. a [2, 9]: 4.42
- pEC50 M L. b [3, 9]: 4.52

Molecule: CN1CCN(CCCN2c3ccccc3Sc3ccc(C(F)(F)F)cc32)CC1 [Trifluoperazine]
- EC50 [4, 10]: 3.8e-05 M

Molecule: C[C@]1(COc2ccc(N3CCC(Oc4ccc(OC(F)(F)F)cc4)CC3)cc2)Cn2cc([N+](=O)[O-])nc2O1 [Delamanid]
- efficacy against Leishmania [6]: effective

Molecule: OCCN1CCN(CCCN2c3ccccc3Sc3ccc(Cl)cc32)CC1 [Perphenazine]
- EC50 [4, 10]: 2.75e-05 M

Molecule: CCN(CC)C(C)CN1c2ccccc2Sc2ccccc21 (centres unmarked) [Ethopropazine]
- EC50 [2, 12]: 4.57e-05 M
- EC50 [3, 13]: 3.72e-05 M
- EC50 [4, 10]: 3.16e-05 M

Molecule: CNC1CC(c2ccc(Cl)c(Cl)c2)c2ccccc21 (centres unmarked) [Indatraline]
- EC50 ([4]; THP-1): 1.81e-05 M
- EC50 [4, 11]: 1.82e-05 M

Molecule: CN(C)CCCN1c2ccccc2Sc2ccc(C(F)(F)F)cc21 [Triflupromazine]
- EC50 [4, 10]: 2.82e-05 M

Molecule: CCc1cccc(N(C)C(N)=Nc2cccc3ccccc23)c1 [Cerestat]
- EC50 [2, 12]: 2.88e-05 M

Molecule: CNCCC=C1c2ccccc2CCc2ccccc21 [Nortriptyline]
- EC50 [2, 12]: 2.95e-05 M
- EC50 [3, 13]: 3.63e-05 M

Molecule: CC(CN(C)C)CN1c2ccccc2CCc2ccccc21 (centres unmarked) [Trimipramine]
- EC50 [2, 12]: 3.98e-05 M
- EC50 [3, 13]: 2.82e-05 M
- EC50 [4, 10]: 4.07e-05 M

Molecule: CC[C@]1(O)C[C@@H]2CN(CCc3c([nH]c4ccccc34)[C@@](C(=O)OC)(c3cc4c(cc3OC)N(C)[C@H]3[C@@](O)(C(=O)OC)[C@H](OC(C)=O)[C@]5(CC)C=CCN6CC[C@]43[C@@H]65)C2)C1 [Vinblastine]
- EC50 [2, 12]: 2.82e-05 M
- EC50 [3, 13]: 3.47e-05 M

Molecule: CN(C)CCCN1c2ccccc2Sc2ccccc21 [Promazine]
- EC50 [3, 13]: 4.57e-05 M

Molecule: Cl.O[Si](CCCN1CCCCC1)(c1ccc(F)cc1)C1CCCCC1 (centres unmarked) [pFHHSiD]
- normalized activity against two species [5]: > 90%

Molecule: CNCCCN1c2ccccc2CCc2ccccc21 [Desipramine]
- EC50 [2, 12]: 2.75e-05 M
- EC50 [3, 13]: 3.24e-05 M

Molecule: CC(CN1c2ccccc2Sc2ccccc21)N(C)C (centres unmarked) [Promethazine]
- EC50 [2, 12]: 3.98e-05 M
- EC50 [3, 13]: 3.98e-05 M

Molecule: CNCCCC12CCC(c3ccccc31)c1ccccc12 [Maprotiline]
- pan-leishmanial activity (efficacy) [5]: greater than 70%

Molecule: CCCCCCCCCCCCCCCCOP(=O)([O-])OCC[N+](C)(C)C [miltefosine]
- EC50 ([2]; THP-1, variation across ten independent experiments, read-out: EC50): 9.7e-07 to 1.4e-05 M
- EC50 [2, 15]: 2.3e-06 M
- EC50 [3, 15]: 1.6e-06 M
- EC50 [4, 15]: 6e-07 M
- potency variation between species ([5]; EC50 compared between the three species): up to 4 fold
- Emax [5, 16]: 78 to 100%
- sensitivity to miltefosine, L. aethiopica relative to L. major [7]: 14 fold
- potency against L. donovani relative to L. amazonensis, L. braziliensis, L. guyanensis, and L. chagasi [8]: approximately 20 times

Molecule: c1cc(CN2CCCCC2)cc(OCCCNc2nc3ccccc3s2)c1 [SKF 95282]
- EC50 [2, 12]: 4.27e-05 M
- EC50 [3, 13]: 2.63e-05 M
- EC50 [4, 10]: 4.9e-05 M

Molecule: Fc1ccc([C@@H]2CCNC[C@H]2COc2ccc3c(c2)OCO3)cc1 [Paroxetine]
- EC50 [4, 10]: 3.16e-05 M

Molecule: OCCN1CCN(CCC=C2c3ccccc3Sc3ccc(C(F)(F)F)cc32)CC1 [Flupenthixol]
- EC50 [4, 10]: 3.47e-05 M

Molecule: CNCCCC1c2ccccc2C=Cc2ccccc21 [Protriptyline]
- EC50 [2, 12]: 3.89e-05 M
- EC50 [3, 13]: 3.72e-05 M
- EC50 [4, 10]: 2.95e-05 M
- pan-leishmanial activity (efficacy) [5]: greater than 70%
